Target: T1, Rat liver microsomal squalene synthase (Rattus norvegicus, UniProt Q02769)
T1 construct: Rat liver microsomes, the source of enzyme, were prepared; from tissue; host or cells: rat liver microsomes
T1 sequence (Q02769 1-416): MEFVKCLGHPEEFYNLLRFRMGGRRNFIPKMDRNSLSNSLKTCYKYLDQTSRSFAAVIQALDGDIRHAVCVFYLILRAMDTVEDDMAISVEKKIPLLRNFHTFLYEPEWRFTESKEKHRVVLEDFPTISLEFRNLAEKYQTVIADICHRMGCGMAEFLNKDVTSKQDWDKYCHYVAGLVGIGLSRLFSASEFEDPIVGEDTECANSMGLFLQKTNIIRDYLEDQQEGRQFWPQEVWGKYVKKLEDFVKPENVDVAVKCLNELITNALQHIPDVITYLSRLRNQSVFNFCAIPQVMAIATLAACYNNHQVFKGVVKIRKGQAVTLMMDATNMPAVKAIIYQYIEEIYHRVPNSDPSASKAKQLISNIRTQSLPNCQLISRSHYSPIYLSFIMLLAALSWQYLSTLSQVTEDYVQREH
Assay: In vitro Inhibition of Squalene Synthase (rat liver microsomal, radioactive farnesyl diphosphate substrate)
Format: biochemical
Settings: rat liver microsomes
Description: In vitro inhibition of squalene synthase may be measured by the following procedure.
Rat liver microsomal squalene synthase activity was measured using radioactive farnesyl diphosphate as a substrate and quantitating squalene synthesis by counting the radioactive squalene formed.
Rat liver microsomes, the source of enzyme, were prepared according to the method of Gillies, P. J., et al., Exp. Molc. Pathol. 44: 329-339 (1986), a modification of the procedure of Erickson, S. K., and Cooper, A. D., Metabolism, 29: 991-996 (1980). Approximately 30 μg of microsomal protein was incubated for 10 minutes at 37° C. with […] of ^3 H-farnesyl diphosphate, 49 mCi/mmol, and test compound in the presence of squalene (2 μL), Mg++, KF, reduced B-nicotinamide adenine dinucleotide phosphate, dithiothreitol, and K2 PO4, pH 7.35, in a total volume of 200 μL. Oxygen was excluded from the closed incubation tube by degassing with nitrogen. The reaction was terminated by the addition of ethanolic KOH and after degassing with N2, the microsomal membranes were solubilized by heating at 60° C. for 30 minutes. The squalene was extracted into hexane, and the squalene was separated from all other radioactive molcules by passage over an activated alumina column. The solution was collected in scintillation vials, evaporated to dryness, liquid scintillation fluid was added, and the radioactivity was determined in a liquid scintillation counter. The percent inhibition at a dose of 1 μM compared to controls with no test compound was determined.

Row | Compound | % Inhibition at 1 μM | inhibition at 1 µM
1 | O=C(O)[C@H]1[C@H](C(=O)O)[C@H](C(=O)O)[C@H]1C(=O)N(CCCCCCCCCCc1ccccc1)Cc1ccccc1 (relative stereo) [Example 35, (1β,2β,3α,4α)-4-[N-Benzyl-N-(10-phenyldecyl)aminocarbonyl]cyclobutane-1,2,3-tricarboxylic acid] | – | 47%
2 | O=C(O)[C@H]1[C@H](C(=O)O)[C@H](C(=O)O)[C@H]1C(=O)N(Cc1ccc(Oc2ccccc2)cc1)Cc1ccc(Cl)c(Cl)c1 (relative stereo) [Example 46] | – | 53%
3 | COC(=O)[C@H]1[C@@H](C(=O)O)[C@H](C(=O)O)[C@@H]1C(=O)N[C@@H](C)[C@@H](Cc1ccc(Cl)c(Cl)c1)OC(=O)c1ccc2ccccc2c1 [Example 24] | – | 27%
4 | C[C@H](NC(=O)[C@H]1[C@H](C(=O)O)[C@H](C(=O)O)[C@H]1C(=O)O)[C@@H](Cc1ccc(Cl)c(Cl)c1)OC(=O)c1ccc2ccccc2c1 [Example 25, (1S,2S,3S,4R)-4-[N-{(2S,3R)-4-(3,4-Dichlorophenyl)-3-(2-naphthoyloxy)-2-butyl}aminocarbonyl]cyclobutane-1,2,3-tricarboxylic acid] | – | 35%
5 | C[C@H](NC(=O)[C@H]1[C@@H](C(=O)O)[C@H](C(=O)O)[C@@H]1C(=O)O)[C@@H](Cc1ccc(Cl)c(Cl)c1)OC(=O)c1ccc2ccccc2c1 [Example 26, (1R,2R,3R,4S)-4-[N-{(2S,3R)-4-(3,4-Dichlorophenyl)-3-(2-naphthoyloxy)-2-butyl}aminocarbonyl]cyclobutane-1,2,3-tricarboxylic acid] | – | 52%
6 | COC(=O)[C@@H]1[C@@H](C(=O)O)[C@@H](C(=O)O)[C@@H]1C(=O)N[C@@H](C)[C@@H](Cc1ccc(Cl)c(Cl)c1)OC(=O)c1ccc2ccccc2c1 [Example 27, (1S,2S,3S,4S)-3-Methoxycarbonyl-4-[N-{(2S,3R)-4-(3,4-dichlorophenyl)-3-(2-naphthoyloxy)-2-butyl}aminocarbonyl]cyclobutane-1,2-dicarboxylic acid] | – | 98%
7 | C[C@H](NC(=O)C1CCC1C(=O)O)[C@H](Cc1ccc(Cl)cc1)c1ccc(-c2ccccc2)cc1 (stereo partly drawn) [Example 37, 2-[N-{(2S,3R)-4-(4-Chlorophenyl)-3-(4-biphenylyl)-2-butyl}aminocarbonyl]cyclobutane-1-carboxylic acid] | – | 90%
8 | CC(C=CCCCN(Cc1ccccc1)C(=O)C1C(C(=O)O)C(C(=O)O)C1C(=O)O)CCCc1ccccc1 [Example 45, (1α,2α,3β,4β)-4-{N-Benzyl-N-[(R)-6-methyl-9-phenyl-(E)-4-nonenyl]aminocarbonyl}cyclobutane-1,2,3-tricarboxylic acid] | – | 67%

More lines, now with the values ahead:

Row | % Inhibition at 1 μM | inhibition at 1 µM | Compound
9 | 80% | – | C[C@H](NC(=O)C1CC(CO)C1C(=O)[O-])[C@H](Cc1ccc(Cl)cc1)c1ccc(-c2ccccc2)cc1.[Na+] (mixture of isomers) [Example 41, (±)-(1α,2β,4α)-2-[N-{(2S,3R)-4-(4-Chlorophenyl)-3-(4-biphenylyl)-2-butyl}aminocarbonyl]-4-hydroxymethylcyclobutane-1-carboxylic acid sodium salt]
10 | – | 94% | CC(NC(=O)[C@H]1C[C@H](C(=O)O)[C@H]1C(=O)O)C(Cc1ccc(Cl)cc1)c1ccc(-c2ccccc2)cc1 (relative stereo) [Example 34, (1β,2α,3α)-3-[N-{(2S,3R)-4-(4-chlorophenyl)-3-(4-biphenylyl)-2-butyl}aminocarbonyl]cyclobutane-1,2-dicarboxylic acid]
11 | – | 98% | COC(=O)[C@@H]1[C@H](C(=O)O)[C@@H](C(=O)O)[C@H]1C(=O)N[C@@H](C)[C@@H](Cc1ccc(Cl)c(Cl)c1)OC(=O)c1ccc2ccccc2c1 [Example 23, (1S,2R,3S,4R)-3-Methoxycarbonyl-4-[N-{(2S,3R)-4-(3,4-dichlorophenyl)-3-(2-naphthoyloxy)-2-butyl}aminocarbonyl]cyclobutane-1,2-dicarboxylic acid]
12 | – | 63% | CCCN(CCCC(OC(=O)c1ccc2ccccc2c1)C(C)Cc1ccccc1)C(=O)C1C(C(=O)O)C(C(=O)O)C1C(=O)O (stereo not drawn) [Example 43, (1α,2β,3β,4α)-4-{N-Propyl-N-[(4S*,5S*)-(5-methyl-4-napthoyloxy)-6-phenylhexyl]aminocarbonyl}cyclobutane-1,2,3-tricarboxylic acid]
13 | – | 25% | CCCN(CCCC=CC(C)CCCc1ccccc1)C(=O)C1C(C(=O)O)C(C(=O)O)C1C(=O)O [Example 44, (1α,2α,3β,4β)-4-{N-Propyl-N-[(R)-6-methyl-9-phenyl-(E)-4-nonenyl]aminocarbonyl}cyclobutane-1,2,3-tricarboxylic acid]

Target: T2, Rat brain protein farnesyltransferase (Rattus norvegicus, UniProt Q02293+Q04631)
T2 construct: Rat brain protein farnesyltransferase activity was measured; from tissue; host or cells: rat brain; partially purified by steps one through three of Reiss et al., Cell 62:81-88 (1990)
Assay: In vitro Inhibition of Protein Farnesyltransferase (scintillation proximity assay, biotin-K Ras B fragment)
Format: biochemical
Settings: rat brain enzyme
Description: In vitro inhibition of protein farnesyltransferase may be measured by the following procedure. (Procedures for determination of the inhibition of farnesylation of the oncogene protein Ras are described by Goldstein, et al., J. Biol. Chem., 266:15575-15578 (1991) and by Singh in U.S. Pat. No. 5,245,061 both of which are incorporated herein by reference.)
Rat brain protein farnesyltransferase activity was measured using an Amersham Life Science commercial scintillation proximity assay kit and substituting a biotin-K Ras B fragment (biotin-Lys-Lys-Ser-Lys-Thr-Lys-Cys-Val-lle-Met-CO2 H), 0.1 μM final concentration, for the biotin-lamin substrate provided by Amersham. The enzyme was purified according to Reiss, Y., et al., Cell, 62:81-88 (1990), utilizing steps one through three. The specific activity of the enzyme was approximately 10 nmol substrate farnesylated/mg enzyme/hour. […]

Row | inhibition at 1 µM | Compound
14 | 45% | O=C(OCc1ccccc1)[C@@H]1[C@H](C(=O)O)[C@@H](C(=O)OCc2ccccc2)[C@H]1C(=O)N(Cc1ccccc1)Cc1ccc(Oc2ccccc2)cc1 (relative stereo) [Example 3, (1α,2β,3β,4α)-1-[N-Benzyl-N-(4-phenoxybenzyl)aminocarbonyl]-2,4-di(benzyloxycarbonyl)cyclobutane-3-carboxylic acid]
15 | 99% | O=C(O)[C@@H]1[C@H](C(=O)O)[C@@H](C(=O)O)[C@H]1C(=O)N(Cc1ccccc1)Cc1ccc(Oc2ccccc2)cc1 (relative stereo) [Example 4, (1α,2β,3β,4α)-1-[N-Benzyl-N-(4-phenoxybenzyl)aminocarbonyl]cyclobutane-2,3,4-tricarboxylic acid]
16 | 21% | O=C(OCc1ccccc1)[C@@H]1[C@H](C(=O)O)[C@@H](C(=O)OCc2ccccc2)[C@H]1C(=O)N(Cc1ccc(Oc2ccccc2)cc1)Cc1cccs1 (relative stereo) [Example 5, (1α,2β,3β,4α)-1-[N-(Thien-2-ylmethyl)-N-(4-phenoxybenzyl)aminocarbonyl]-2,4-di(benzyloxycarbonyl)cyclobutane-3-carboxylic acid]
17 | 89% | O=C(O)[C@@H]1[C@H](C(=O)O)[C@@H](C(=O)O)[C@H]1C(=O)N(Cc1ccc(Oc2ccccc2)cc1)Cc1cccs1 (relative stereo) [Example 6, (1α,2β,3β,4α)-1-[N-(Thien-2-ylmethyl)-N-(4-phenoxybenzyl)aminocarbonyl]cyclobutane-2,3,4-tricarboxylic acid]
18 | 79% | COC(=O)[C@H]1[C@@H](C(=O)O)[C@H](C(=O)N(Cc2ccccc2)Cc2ccc(Oc3ccccc3)cc2)[C@@H]1C(=O)O (relative stereo) [Example 8, (1α,2β,3β,4α)-1-[N-Benzyl-N-(4-phenoxybenzyl)aminocarbonyl]-3-(methyloxycarbonyl)cyclobutane-2,4-dicarboxylic acid]
19 | 92% | CC(Cc1ccccc1)C(O)CCCN(Cc1ccccc1)C(=O)C1C(C(=O)O)C(C(=O)O)C1C(=O)O (stereo not drawn) [Example 1, (1α,2β,3β,4α)-1-[N-Benzyl-N-{(4S*,5S*)-(4-hydroxy-5-methyl)-6-phenylhexyl}aminocarbonyl]cyclobutane-2,3,4-tricarboxylic acid]

Target: T1, Rat liver microsomal squalene synthase
Assay: In vitro Inhibition of Squalene Synthase (rat liver microsomal, radioactive farnesyl diphosphate substrate)
Format: biochemical
Settings: 0.15 μM (footnote *); rat liver microsomes

Row | inhibition at 0.15 µM | Compound
20 | 81% | CC(NC(=O)C1C(C(=O)O)C(C(=O)O)C1C(=O)O)C(Cc1ccc(Cl)cc1)c1ccc(-c2ccccc2)cc1 [Example 29, (1α,2α,3α,4α)-4-[N-{(2S,3R)-4-(4-chlorophenyl)-3-(4-biphenylyl)-2-butyl}aminocarbonyl]cyclobutane-1,2,3-tricarboxylic acid]

Reference: US5831115A, “Inhibitors of squalene synthase and protein farnesyltransferase” (Abbott Laboratories, priority 1996, dated 1998)
